From ChEMBL document CHEMBL6177968, “Development of sulfamoylbenzamide-based capsid assembly modulators for hepatitis B virus capsid assembly” (Eur J Med Chem, 2025)

Assays:
[1] = Selectivity index, ratio of CC50 for cytotoxicity in human HepG2.2.15 cells assessed as reduction in cell viability to EC50 for antiviral activity against HBV in human HepG2.2.15 cells assessed as reduction in viral replication; type: toxicity, cell-based; details: read-out: Ratio CC50/EC50
[2] = Cytotoxicity in human HepG2.2.15 cells assessed as reduction in cell viability; type: toxicity, cell-based, HepG2 2.2.15
Hepatitis B virus [3] = assay: Antiviral activity against HBV in human HepG2.2.15 cells assessed as reduction in viral replication incubated for 5 days by real-time PCR analysis; type: functional, organism-based; details: HepG2.2.15, 120 h
[4] = Metabolic stability in mouse liver microsomes assessed as compound remaining measured after 30 mins; type: ADME, Microsome; details: read-out: Stability
[5] = Metabolic stability in rat liver microsomes assessed as compound remaining measured after 30 mins; type: ADME, Microsome; details: read-out: Stability
[6] = Metabolic stability in human liver microsomes assessed as compound remaining measured after 30 mins; type: ADME, Microsome; details: read-out: Stability
[7] = Selectivity index, ratio of CC50 for cytotoxicity in human HepaRG cells assessed as reduction in cell viability to EC50 for antiviral activity against HBV in human HepaRG cells assessed as reduction in viral replication; type: toxicity, cell-based; details: read-out: Ratio CC50/EC50
Hepatitis B virus [8] = assay: Antiviral activity against HBV infected in human HepG2 cells expressing NTCP assessed as viral DNA replication at 1 uM incubated for 6 days by Southern blot analysis (reference value: 100 %); type: functional; details: time 6 day
Hepatitis B virus [9] = assay: Antiviral activity against HBV in human HepaRG cells assessed as reduction in viral replication; type: functional, organism-based
Hepatitis B virus [10] = assay: Antiviral activity against HBV infected in human HepG2 cells expressing NTCP assessed as capsid level at 1 uM incubated for 6 days by Western blot analysis (reference value: 100 %); type: functional; details: time 6 day
[11] = Selectivity index, ratio of CC50 for cytotoxicity in human HepG2-hNTCP cells assessed as reduction in cell viability to EC50 for antiviral activity against HBV in human HepG2-hNTCP cells assessed as reduction in viral replication; type: toxicity, cell-based; details: read-out: Ratio CC50/EC50
Hepatitis B virus [12] = assay: Antiviral activity against HBV in human HepG2 cells expressing NTCP assessed as reduction in viral replication; type: functional, organism-based
Hepatitis B virus [13] = assay: Antiviral activity against HBV infected in human HepG2 cells expressing NTCP assessed as ratio of capsid associated HBV DNA level at 1 uM incubated for 6 days by Western blot analysis (reference value: 100 %); type: functional; details: time 6 day
[14] = Cytotoxicity in human HepG2-hNTCP cells assessed as reduction in cell viability; type: toxicity, cell-based
Hepatitis B virus [15] = assay: Antiviral activity against HBV infected in human HepG2 cells expressing NTCP assessed as capsid associated HBV DNA level at 1 uM incubated for 6 days by Western blot analysis (reference value: 100 %); type: functional; details: time 6 day
[16] = Cytotoxicity in human HepaRG cells assessed as reduction in cell viability; type: toxicity, cell-based
Hepatitis B virus [17] = assay: Antiviral activity against HBV infected in human HepG2 cells expressing NTCP assessed as intracellular HBc level at 1 uM incubated for 6 days by Western blot analysis (reference value: 100 %); type: functional; details: time 6 day

Row | EC50 (Hepatitis B virus [3]) | Compound | selectivity ratio [1] | CC50 [2] | further results
1 | 70 nM | CN(C1COC1)S(=O)(=O)c1cc(C(=O)Nc2ccc(F)c(C(F)F)c2)c(N)cc1F | 115 | 7.68 µM | –
2 | 1520 nM | Nc1cc(F)c(S(=O)(=O)NC2CNC2)cc1C(=O)Nc1ccc(F)c(F)c1 | 56.5 | 85.8 µM | –
3 | 100 nM | Nc1cc(F)c(S(=O)(=O)N2CC3COCC3C2)cc1C(=O)Nc1ccc(F)c(C(F)F)c1 (centres undefined) | > 9330 | > 900 µM | remaining at 0.5 h [4]: 0.09%; remaining at 0.5 h [5]: 0.79%; remaining at 0.5 h [6]: 0.76%
4 | 60 nM | CC1(CNS(=O)(=O)c2cc(C(=O)Nc3ccc(F)c(C(F)F)c3)c(N)cc2F)COC1 | 14300 | 855 µM | remaining at 0.5 h [4]: 1.37%; remaining at 0.5 h [5]: 8.38%; remaining at 0.5 h [6]: 23.6%
5 | 50 nM | Nc1cc(F)c(S(=O)(=O)N2CCCOCC2)cc1C(=O)Nc1ccc(F)c(C(F)F)c1 | 96.2 | 5.14 µM | –
6 | 130 nM | Nc1cc(F)c(S(=O)(=O)NCC2COC2)cc1C(=O)Nc1ccc(F)c(C(F)F)c1 | 1160 | 150 µM | remaining at 0.5 h [4]: 31.9%; remaining at 0.5 h [5]: 26%; remaining at 0.5 h [6]: 56.2%
7 | 410 nM | Nc1cc(F)c(S(=O)(=O)N2CCOCC2)cc1C(=O)Nc1ccc(F)c(F)c1 | 610 | 248 µM | –
8 | 1610 nM | Nc1cc(F)c(S(=O)(=O)N[C@@H]2CCOC2=O)cc1C(=O)Nc1ccc(F)c(C(F)F)c1 | 147 | 238 µM | –
9 | > 30000 nM | Nc1cc(F)c(S(=O)(=O)N2CCOCC2)cc1C(=O)Nc1ccc(F)c(Cl)c1 | – | 198 µM | –
10 | 580 nM | CC(C)(NS(=O)(=O)c1cc(C(=O)Nc2ccc(F)c(C(F)F)c2)c(N)cc1F)C1COC1 | 277 | 161 µM | remaining at 0.5 h [4]: 0.03%; remaining at 0.5 h [5]: 5.63%; remaining at 0.5 h [6]: 17.2%
11 | 1190 nM | Nc1cc(F)c(S(=O)(=O)N2CCNCC2)cc1C(=O)Nc1ccc(F)c(F)c1 | 26.4 | 31.5 µM | –
12 | 490 nM | Nc1cc(F)c(S(=O)(=O)NC2CCOC2)cc1C(=O)Nc1ccc(F)c(F)c1 (centres undefined) | 53.6 | 26.3 µM | –
13 | 220 nM | Nc1cc(F)c(S(=O)(=O)N2CCCOCC2)cc1C(=O)Nc1ccc(F)c(F)c1 | 48.6 | 10.7 µM | –
14 | 690 nM | C[C@H](CO)NS(=O)(=O)c1cc(C(=O)Nc2ccc(F)c(F)c2)c(N)cc1F | 296 | 204 µM | –
15 | 1400 nM | Nc1cc(F)c(S(=O)(=O)NC2CCOCC2)cc1C(=O)Nc1ccc(F)c(F)c1 | 21.1 | 29.5 µM | –
16 | > 30000 nM | Nc1cc(F)c(S(=O)(=O)N[C@@H]2CNC2=O)cc1C(=O)Nc1ccc(F)c(C(F)F)c1 | – | > 900 µM | –

Row | EC50 (Hepatitis B virus [3]) | Compound | selectivity ratio [1] | CC50 [2] | further results
17 | – | O=C(Nc1cc(F)c(F)c(F)c1)c1ccc(F)c(S(=O)(=O)N2CCC(O)CC2)c1 | – | – | selectivity ratio [7]: 6.15; Activity (Hepatitis B virus [8]): 61%; EC50 (Hepatitis B virus [9]): 3.74 µM; Activity (Hepatitis B virus [10]): 136%; selectivity ratio [11]: 75.7; EC50 (Hepatitis B virus [12]): 320 nM; Ratio (Hepatitis B virus [13]): 69%; CC50 [14]: 24.2 µM; Activity (Hepatitis B virus [15]): 95%; CC50 [16]: 23 µM; Activity (Hepatitis B virus [17]): 82%
18 | 440 nM | Nc1cc(F)c(S(=O)(=O)N2CC3(COC3)C2)cc1C(=O)Nc1ccc(F)c(F)c1 | 386 | 170 µM | –
19 | 250 nM | CC(C)NS(=O)(=O)c1cc(C(=O)Nc2ccc(F)c(F)c2)c(N)cc1F | 36.8 | 9.29 µM | –
20 | 2120 nM | C[C@@H](CO)NS(=O)(=O)c1cc(C(=O)Nc2ccc(F)c(F)c2)c(N)cc1F | 73.7 | 156 µM | –
21 | 250 nM | Nc1cc(F)c(S(=O)(=O)N2CC3(COC3)C2)cc1C(=O)Nc1ccc(F)c(C(F)F)c1 | > 3540 | > 900 µM | –
22 | 220 nM | Nc1cc(F)c(S(=O)(=O)N2CCS(=O)(=O)CC2)cc1C(=O)Nc1ccc(F)c(C(F)F)c1 | 1740 | 385 µM | –
23 | 3010 nM | N#Cc1cc(NC(=O)c2cc(S(=O)(=O)N3CCOCC3)c(F)cc2N)ccc1F | > 299 | > 900 µM | –
24 | 60 nM | CC1(NS(=O)(=O)c2cc(C(=O)Nc3ccc(F)c(C(F)F)c3)c(N)cc2F)COC1 | 458 | 26.1 µM | –
25 | 2950 nM | Nc1cc(F)c(S(=O)(=O)N[C@H]2COC(=O)C2)cc1C(=O)Nc1ccc(F)c(C(F)F)c1 | 237 | 698 µM | –
26 | 470 nM | C[C@@H](NS(=O)(=O)c1cc(C(=O)Nc2ccc(F)c(C(F)F)c2)c(N)cc1F)C1COC1 | 399 | 187 µM | –
27 | 360 nM | Nc1cc(F)c(S(=O)(=O)N2CC3CCC(C2)O3)cc1C(=O)Nc1ccc(F)c(F)c1 | 38.5 | 14 µM | –
28 | 160 nM | Nc1cc(F)c(S(=O)(=O)N2CCOCC2)cc1C(=O)Nc1ccc(F)c(C(F)F)c1 | 4240 | 681 µM | –
29 | 7520 nM | Nc1cc(F)c(S(=O)(=O)NC2CCNC2)cc1C(=O)Nc1ccc(F)c(F)c1 (centres undefined) | 14.5 | 109 µM | –
30 | 3020 nM | COCCNS(=O)(=O)c1cc(C(=O)Nc2ccc(F)c(F)c2)c(N)cc1F | 32.1 | 97 µM | –
31 | 4580 nM | Cc1cc(NC(=O)c2cc(S(=O)(=O)N3CCOCC3)c(F)cc2N)ccc1F | 94.7 | 433 µM | –
32 | 180 nM | Nc1cc(F)c(S(=O)(=O)NC2CCC2)cc1C(=O)Nc1ccc(F)c(C(F)F)c1 | 125 | 22.8 µM | –
